How the values were obtained:
β-amyloid = experiment: inhibition of β-amyloid
blood vessels [1] = experiment: vasodilation of blood vessels
rat brain = experiment: infarct volume after middle cerebral artery occlusion (MCAO); assay type: in vivo
Protocol: Adult male rats weighing 200-250 g were anesthetized. Focal cerebral ischemia was induced by ligature of the left common carotid artery and occlusion of the ipsilateral distal middle cerebral artery (MCAO). […] Rats subjected to sham MCAO operation served as control. To determine infarct volume, the brains were removed 48 hours after MCAO and a series of coronal brain slices were obtained and stained with 1% 2,3,5-triphenyl-tetrazolium chloride in 0.1M phosphate buffer. The infarct volume was determined by adding the infarct volumes, which were unstained by the dye.

platelets = experiment: epinephrine-induced platelet aggregation; assay type: cell-based, human
Text: During the study, optical density was continuously recorded.

NO production = experiment: stimulation of NO production
blood vessels [2] = experiment: inhibition of contraction
[3] = patients; cited from earlier work
[4] = cited from earlier work
human platelets [5] = experiment: collagen-induced human platelet aggregation, preincubation with drug; assay type: cell-based; settings: 15 min preincubation; for peak aggregation: collagen (baseline around 89%)
Protocol: (§1) 500 microliter of whole blood was diluted with equal volume of 0.9% sodium chloride and prewarmed at 37° C. for 5 minutes. For optical studies, platelet rich plasma blood was mixed gently and immediately centrifuged at 180 g for 10 min to obtain platelet-rich plasma (PRP). Platelet poor plasma (PPP) was obtained by centrifugation at 1800 g for 15 minutes at room temperature. The platelet concentration in the PRP was adjusted to approximately 250×10^9 cells/l using PPP. Readings were taken at 37° C. at a stirring speed of 1200 rpm.
(§2) Aggregation agonists were used at a final concentration of 2.0×10^−5 M for ADP, 0.19 mg/ml for collagen, 500 μg/ml for arachidonic acid, and 1×10^−4 M for epinephrine. During the study, optical density was continuously recorded. The 0% and 100% aggregation levels were set with PRP and PPP, respectively. The maximal percentage of platelet aggregation was calculated as the light transmission between platelet-rich and platelet-poor plasma (100%). When a stable baseline was obtained with 450 μl of PRP, 50 μl of one of the aggregation-inducing agents was added. The maximum height and slope of the aggregation curves were determined. After the electrode was immersed in the sample, platelet aggregation to various agonists (collagen, ADP, arachidonic acid or epinephrine) was measured in ohms of impedance. The lag phase was defined as the delay time occurring between the addition of collagen and the beginning of the aggregation curve.
Blood samples were preincubated in 50 μM or 100 μM rasagiline, a MAO-B inhibitor, for 15 minutes and aggregation stimulated using collagen. […] Aggregation onset was also delayed by treatment with rasagiline.

human platelets [6] = experiment: ADP-induced human platelet aggregation, preincubation with drug; assay type: cell-based; settings: data not shown
Protocol: as §1
as §2, with “The lag phase was defined as the delay time occurring between the addition of collagen and the beginning of the aggregation curve.” left out

Row | SMILES | ability to inhibit β-amyloid (β-amyloid) | ability to dilate blood vessels (blood vessels [1]) | ability to stimulate NO production (NO production) | ability to inhibit contraction (blood vessels [2]) | also measured
1 | C#CCN(C)[C@H](C)Cc1ccccc1 [1-deprenyl, L-deprenyl] | inhibit β-amyloid | dilate blood vessels | stimulate NO production | inhibit contraction | dose causing rapid NO-mediated endothelium-dependent vasodilation (blood vessels [1]; low doses): ≤ 10 µM; blood vessel disruption and bleeding (rat brain; following 1-deprenyl administration): reduced; platelet aggregation induced by epinephrine (platelets): inhibited the platelet aggregation; lowest concentration with stimulatory effect on NO production (NO production): 1 µM
2 | Cl.NCCNC(=O)c1ccc(Cl)cc1 [RO-16-6491, N-(2-aminoethyl)4-chlorobenzamide hydrochloride] | inhibit β-amyloid | dilate blood vessels | stimulate NO production | inhibit contraction | 
3 | Cl.NCCNC(=O)c1ncsc1-c1cccc(F)c1 [RO-41-1049, N-(2-aminoethyl)-5-(3-fluorophenyl)-4-thiazolecarboxamide hydro-chloride] | inhibit β-amyloid | dilate blood vessels | stimulate NO production | inhibit contraction | 
4 | CC(=O)Oc1ccccc1C(=O)O [aspirin, Acetylsalicylic acid] |  |  |  |  | relative risk reduction of CVD [3]: 25%; reduction of infarct size (rat brain; aspirin 30 mg/kg intraperitoneally 2 hours prior to MCAO, brains 48 hours after MCAO, vs untreated control): about 30%
5 | COC(=O)[C@H](c1ccccc1Cl)N1CCc2sccc2C1 [clopidogrel] |  |  |  |  | share of drug converted to active metabolites in the liver ([4]; by cytochrome P450 isoforms): 15%; share of prodrug converted into inactive metabolites ([4]; in vivo): 85%
6 | C#CCN(C)CCCOc1ccc(Cl)cc1Cl [clorgyline] | inhibit β-amyloid | dilate blood vessels | stimulate NO production | inhibit contraction | 
7 | C#CCN(C)Cc1ccccc1 [pargyline] | inhibit β-amyloid | dilate blood vessels | stimulate NO production | inhibit contraction | 
8 | C#CCN[C@@H]1CCc2ccccc21 [rasagiline] |  |  |  |  | aggregation onset (human platelets [5]; 50 μM or 100 μM, collagen): delayed; peak aggregation (human platelets [5]; 50 μM): 35%; peak aggregation (human platelets [5]; 100 μM): negligible levels; inhibition at 100 µM (human platelets [6]): 69%

From US8906894B1, “Methods for preventing and treating thrombotic disorders” (priority 2000, dated 2014)
